Data on 114 molecules can be found in a melting point compilation (Tetko et al.).

The term melting point denotes the temperature, or range, at which the solid turns liquid.

SMILES strings stand for the structures. Peptide text beside a SMILES is read from it.

With `Cc1ccc(S(=O)(=O)N2CCCN(S(=O)(=O)c3ccc(C)cc3)CC(=O)NCCCNC(=O)C2)cc1`, the melting point worked out at 159 °C.
Molecule `FC(F)(F)c1n[nH]c(=S)[nH]1` showed a melting point of 161 to 164 °C.
In the case of `O=C(O)c1cc(N(Cc2ccccc2O)Cc2cc(O)ccc2O)ccc1O`, the melting point lay in the range of 205 to 215 °C.
As to `Cc1cc(C)c(NC(=O)C(Br)C(C)(C)C)c(C)c1` (centres undefined), the melting point fell in the range of 185 to 188 °C.
Consider `CCCCCCCC(N)P(=O)(O)O` (centres undefined), for which the melting point lay in the range of 269 to 270 °C.
`ClCc1cc(-c2cccs2)on1` came in with a melting point of 32 to 34 °C.
In turn, `CCCOC(=O)c1cc(O)c(O)c(O)c1` came in with a melting point of 148 °C.
Under `N#CC1OCC(OC(=O)c2ccccc2)C(OC(=O)c2ccccc2)C1OC(=O)c1ccccc1` (centres undefined) stands 155 °C; under `FC1(F)C(F)(F)C(F)(Cl)C1(F)Cl` (centres undefined), -15 °C.
Consider `O=C(O)c1cnc2ccccc2c1`, for which the melting point was 277 to 283 °C.
As to `COCCNc1c(C=O)c(=O)n(C)c(=O)n1C`, the melting point is 137 °C.
For the molecule `O=C(NC(=O)c1c(F)cccc1F)Nc1cc(Cl)c(F)c(Cl)c1F`, the melting point stood at 225 °C.
In turn, `CCOC(=O)C(C#N)=C(SCc1ccccc1)SCc1ccccc1` came in with a melting point of 82 °C.
Take `ICCCI`: the melting point was -20 °C.
Under `CS(=O)(=O)CC(=O)O` stands 117 °C; under `N#CC(C=O)c1ccc(Cl)cc1` (centres undefined), 157 °C; under `CN(N=Cc1ccc(Br)cc1)P(=O)(N1CC1)N1CC1`, 118 °C.
Under `Nc1ccc(-c2cccnc2)cc1` stands 115 to 118 °C; under `O=S(=O)(Cl)c1ccc2c(c1)OCCCO2`, 50 to 52 °C.
Under `Cc1cc(C)c(Br)c(C)c1N` stands 36 °C; under `COc1c(Cl)c(Cl)c(Cl)c(Cl)c1OC`, 90 °C; under `O=CC(F)(F)C(F)(F)C(F)(F)C(F)(F)C(F)(F)C(F)(F)C(F)(F)C(F)(F)C=O`, 68 to 70.5 °C.
In turn, `CS(=O)(=O)Nc1cccc(C=O)c1` had a melting point of 146 to 147 °C.
Consider `N#Cc1ccccc1I`, for which the melting point was found to be 55 °C.
Take `CCCCNC(=O)NS(=O)(=O)c1ccccc1`: the melting point amounted to 131 °C.
For `CSc1cc(-c2ccc3ccccc3c2)c2c(=O)n(-c3ccccc3)n(C)c2c1`, the melting point came out at 179 °C.
For `COc1ccc2nc(C#N)sc2c1`, the melting point fell in the range of 128 to 131 °C.
`OCc1cccnc1N1CCCC1` displayed a melting point of 74 to 76 °C.
In the case of `CCC(OC(N)=O)C1CCCCC1` (centres undefined), the melting point was 128 °C.
The value for `O=Cc1c[nH]nc1-c1ccccc1` was 146 to 148 °C.
`Nc1nc(N)sc(=S)n1` returned a melting point of 360 °C.
As for `Cn1c(=O)c2c(nc(Cl)n2CC(=O)O)n(C)c1=O`, the melting point fell in the range of 198 to 199 °C.
Regarding `O=C(O)c1cc(F)nc(F)c1F`, the melting point was 125 to 127 °C.
`O=C1CSCC(=O)O1` had a melting point of 94 to 97 °C.
In the case of `CCCCCCCCOCCCCCCCC`, the melting point is -7.6 °C.
Consider `O=C1C(=C2C(=Cc3coc4ccccc4c3=O)C(=O)c3ccccc32)C(=O)c2ccccc21`, for which the melting point lay in the range of 250 to 251 °C.
Turning to `Cc1cccc(N(C)C(=S)Oc2ccc3c(c2)C2CCC3C2)c1` (centres undefined), the melting point was 93 °C.
`O=Cc1ccc(I)c(O)c1` gave a melting point of 131 to 132 °C.
The molecule `CC(=O)Nc1ccc(OCC(O)CNC(C)C)cc1` (centres undefined) yielded a melting point of 135 °C.
Molecule `O=C(O)C1CCC1C(=O)O` (centres undefined) came in with a melting point of 131 °C.
The value for `c1cnc2c(SSc3cccc4cccnc34)cccc2c1` was 205 to 206 °C.
As to `COc1cc(C(=O)O)cc(OC(C)=O)c1OC`, the melting point was 151 °C.
`CCCCCCCCCCCCCCC(Br)C(=O)O` (centres undefined): the melting point lay in the range of 52 to 56 °C.
Turning to `FC(F)(F)c1cccc(-n2cc[nH]c2=S)c1`, the melting point was 157 to 159 °C.
`O=c1cccc2n1CC1CNCC2C1` (centres undefined): the melting point stood at 152 °C.
`Cc1ccncc1/C=C/C(=O)O` yielded a melting point of 137 °C.
For `C/C(=N\Nc1ccc([N+](=O)[O-])cc1)c1nc2c(ccc3ccccc32)nc1C`, the melting point came to 271 °C.
For `Cc1ccc2ncccc2c1[N+](=O)[O-]`, the melting point fell in the range of 118 to 120 °C.
`CCCC(=O)c1ccc(N)cc1` registered a melting point of 94 to 95 °C.
`Cc1nn(C)c(Cl)c1C=O` registered a melting point of 78 to 79 °C.
Under `CC(=O)CCc1c[nH]c2ccccc12` stands 94 to 96 °C; under `CC(C)C1C(=O)NC(=O)NC1=O`, 214 °C.
`O=Cc1ccc(F)c(C(=O)O)c1` came in with a melting point of 175 to 178 °C.
For `COP(=S)(OC)Oc1cc(Cl)c(Cl)cc1Cl`, the melting point is 41 °C.
Molecule `CCCCOc1ccc(NC(C)=O)cc1` displayed a melting point of 110 to 112 °C.
For the molecule `O=C(Cl)c1cnc2ccccc2n1`, the melting point was determined as 100 °C.
Take `CC(C)Cc1ccc(CC(=O)O)cc1`: the melting point was 86 °C.
`Cc1cccc(OCC(=O)O)c1C` showed a melting point of 186 to 190 °C.
Under `BrC(Br)=C(Br)Br` stands 56.5 °C.
Under `COc1cc(OC)nc(NC(=O)NS(=O)(=O)c2c(-c3nnn(C)n3)cnn2C)n1` stands 170 °C; under `CC1C(=O)C23C(O)CC4C(C)(CO)CCCC4(CO)C2C(O)CC1C3O` (centres undefined), 266 °C; under `Cc1cc(C)c(S(=O)(=O)NN)c(C)c1`, 114 °C.
Under `O=C(O)C(=S)Cc1cccc(CC(=S)C(=O)O)c1` stands 85 °C; under `CCCCCC(=O)CC(C)=O`, -18 °C.
As to `COc1cc(C(=O)NCCCCCC(=O)O)cc(OC)c1OC`, the melting point turned out to be 121 °C.
The value for `CCOC(=O)c1c(C)oc(N)c1C(=O)OCC` was 84 to 85 °C; that for `CC12CCC3C(CCC4CC(=O)CCC43C)C1CCC2O` (centres undefined) was 181 °C; that for `CC(=O)C(C(C)=O)=C1SC2=C(C(=O)c3ccccc3C2=O)N1c1ccccc1` was 254 °C.
In turn, `CSc1ncc(Cl)c(C(=O)O)n1` returned a melting point of 200 °C.
In turn, `BrC1Cc2ccccc2C1Br` (centres undefined) displayed a melting point of 32 °C.
Molecule `N#CCc1ccccc1OCc1ccccc1` displayed a melting point of 77 °C.
On to `COC(=O)CCC(C)C1CCC2C3C=CC4CC(OC(C)=O)CCC4(C)C3CC(OC(C)=O)C12C` (centres undefined), for which the melting point was 86.5 to 87.5 °C.
With `O=C(C=Cc1ccc(C=CC(=O)Nc2ccccc2)cc1)Nc1ccccc1`, the melting point is 292 to 294 °C.
`CC12CCC=C1C1CCC3=CC(=O)CCC3(C)C1CC2` (centres undefined) had a melting point of 117 °C.
On to `N#Cc1ccc(NN)c(Cl)c1`, for which the melting point was in the range of 127 to 128 °C.
On to `O=C(O)/C=C/c1c(F)cccc1F`, for which the melting point was 124 to 125 °C.
`O=C(O)c1ccc(F)c(Cl)c1` showed a melting point of 135 °C.
The molecule `CCCCCCCCCCOc1ccc(C(=O)O)cc1` registered a melting point of 114 °C.
In turn, `O=C(CCCN1CCC2(CC1)C(=O)NCN2c1ccccc1)c1ccc(F)cc1` yielded a melting point of 190 °C.
On to `COC(=O)C=Cc1ccccc1`, for which the melting point worked out at 36 °C.
`CCOC(=O)c1cc2cccc([N+](=O)[O-])c2[nH]1` yielded a melting point of 90 to 96 °C.
In the case of `CN(C)CCCN1c2ccccc2CCc2ccc(Cl)cc21`, the melting point came out at 190 °C.
`CSc1nc(N)nc(-c2cccnc2)n1`: the melting point was 243 to 254 °C.
The molecule `CCCCCCCCCCCCCCCCCCSSCCCCCCCCCCCCCCCCCC` registered a melting point of 62 °C.
Under `Cc1nn(-c2ccccc2)nc1C(=O)NNC(=N)C(Cl)(Cl)Cl` stands 197 to 198 °C; under `CC(O)(c1ccccc1)c1ccccc1`, 80 °C; under `Cc1ccc(C(=O)CCCCl)cc1C`, 46 to 49 °C.
For the molecule `N#CC1CNc2ccccc2O1` (centres undefined), the melting point came out at 63 °C.
Under `CCc1cccc(O)c1` stands -4 °C.
Turning to `CS(=O)(=O)c1ccccc1C(=O)O`, the melting point is 139 °C.
`CCOC(=O)c1cc(O)c(O)c(O)c1` registered a melting point of 151 to 154 °C.
For `O=C1OC(OC2OC(=O)c3ccccc32)c2ccccc21` (centres undefined), the melting point was found to be 222 °C.
Consider `Cc1ncc(COP(=O)(O)O)c(C=O)c1O`, for which the melting point is 255 °C.
For `Fc1ncccc1I`, the melting point was 45 to 46 °C.
In the case of `CCCCF`, the melting point was -134 °C.
As to `CC1(C)OC(=O)C1(C)C`, the melting point was 132 °C.
For `CC(=O)c1c(O)nc2cc3nc(O)c(C(C)=O)c(C)c3cc2c1C`, the melting point turned out to be 310 °C.
As to `OCc1ccc(N2CCOCC2)nc1`, the melting point fell in the range of 74 to 76 °C.
With `Cc1ccccc1N1CSc2nnc(-c3cccnc3)n2C1`, the melting point was determined as 202 °C.
The value for `Clc1noc2ccccc12` was 31 °C; that for `C=CCN=C=S` was -80 °C; that for `CC(=O)Nc1cccc(N)c1C(=O)O` was 184 °C.
Under `Cc1cc(C)c2c(c1)CC2=O` stands 48 °C; under `NC(CCN(Cc1ccco1)S(=O)(=O)c1ccc(Cl)cc1)=NO`, 115 to 117 °C; under `CCOC(=O)C(C)Oc1ccc(Oc2nc3ccc(Cl)cc3o2)cc1` (centres undefined), 90 °C.
With `O=C1OC(/C=C/c2ccccc2)Cc2ccccc21` (centres undefined), the melting point turned out to be 84 °C.
Molecule `CCCNC(C)C(=O)Nc1ccccc1C` (centres undefined) had a melting point of 37.5 °C.
On to `CCc1c(C)nc(NC(=O)NS(=O)(=O)c2cccs2)nc1O`, for which the melting point was in the range of 179 to 180 °C.
Molecule `N#Cc1cccc(N2CCCC2)c1` registered a melting point of 84 to 85 °C.
In turn, `FC(F)C(F)C(F)(F)F` (centres undefined) registered a melting point of -156 °C.
As for `ClCc1csc(-c2ccccc2)n1`, the melting point was in the range of 49 to 50 °C.
In the case of `NNC(=S)NCc1ccccc1`, the melting point was 130 °C.
Consider `CN1CCC23c4c5ccc(O)c4OC2C(=O)CCC3C1C5` (centres undefined), for which the melting point was found to be 266 °C.
As to `CC[C@H](C)[C@H](NC(=O)CN)C(=O)O` (H-Gly-Ile-OH), the melting point was determined as 248 °C.
